Assay results from patent US20020103084A1, “Soybean derived pesticide” (priority 2000, published 2002).

System: Persia mites
Assay: Spray on avocado trees infested with Persia mites
Assay type: in vivo
Details: Example 14, diluted 200 times water
Method: Soybean extract and soybean slurry prepared as described above are used in the following examples. Many of the following examples involve spraying solutions onto leaves. The amount sprayed in the subsequent examples is quantified as spraying an amount sufficient to totally wet the plant or leaf surface.
The prepared concentrated insecticide is then diluted with 100 times water and thereafter sprayed onto avocado trees infested with Persia mites. A control sample using water was also tested. The results are as follows:
The effectiveness of soybean extract (Sample I) sprayed upon avocado leaves infested with Persia mites is evaluated. Sample I is diluted at both 100 times and 500 times water and thereafter sprayed onto avocado trees infested with Persia mites. A control sample using water was also tested. The results are as follows:
The same samples used in Example 5 are also used in testing effectiveness for control of mites. The samples are diluted with 100 times water and sprayed onto avocado trees infested with Persia mites. Two controls were used: the first, pure water; and, the second, clove oil diluted 100 times with water. The test results are as the following:
The same samples used in Example 7 are also used in testing the control of mites. The samples are diluted with 100 times water and sprayed onto avocado trees infested with Persia mites. The test results are as the following: […]

In the case of `O=C/C=C/c1ccccc1` [Cinnamic Aldehyde, cinnamic aldehyde], the “Mortality (%)” value (6 days after spray) is reported as 57.3% and the “No. Mites 6 Days After Spray” value (average number of mites per leaf, avocado trees) is reported as 10.8.
